Like-named read-outs stand apart in the source and are kept apart here.
Assays:
[1] = biological target: T1, Human cytomegalovirus DNA polymerase (Human cytomegalovirus, UniProt P08546); test: HCMV polymerase assay (AlphaLISA); format: biochemical; conditions: HCMV DNA polymerase 0.2 nM, 60 minutes at 37° C.; read-out: CMV (IC50)
T1 construct: made in house; host or cells: SF21 insect cells (baculovirus vector)
Method: Human cytomegalovirus and varicella zoster virus DNA polymerases were expressed via baculovirus vector in SF21 cells and purified. Heterodimeric nucleic acid substrate used in the herpesvirus polymerase reactions was generated by annealing a 59-mer template to a 17-mer digoxigenin-labeled primer. Polymerase (HCMV final concentration of 0.2 nM; VZV final concentration of 0.4 nM) was combined with an inhibitor compound or DMSO in assay buffer (10 mM HEPES, pH 7.5, 25 mM KCl, 25 mM NaCl, 5 mM MgCl2, 5% glycerol, 0.67 mg/ml bovine serum albuminutes, and 1 mM tris(2-carboxyethyl)phosphine), and this mixture was pre-incubated for 30 minutes at room temperature in 384-well microtiter plates. The polymerization reaction was initiated by the addition of template/primer substrate (final concentration: 1.6 nM), and dNTPs (final concentration: 24 nM dCTP, 24 nMdGTP, 16 nM dATP, 16 nM dTTP, and 0.8 nM biotin-dUTP). After 60 minutes incubation at 37° C., reactions were terminated with quench buffer (25 mM HEPES pH 7.5, 100 mM NaCl, 0.25% Tween-20, 12 mM EDTA, and 1 mg/ml bovine serum albumin). Incorporation of biotinylated UTP was detected with 2.5-ug/ml anti-DIG AlphaLISA acceptor beads and 5-10 ug/ml streptavidin AlphaLISA donor beads (Perkin Elmer). Compound effects were normalized to the window defined by the controls (DMSO only and pre-quenched wells) and were fit using a 4-parameter algorithm to report an IC50.

HSV-1 Strain F = test: Viral qPCR assay, HSV-1 in MRC5 cells; format: cell-based, Herpes Simplex Virus type 1; conditions: read-out: HSV1 MRC5 Cell (EC50)
Method: (§1) MRCS cells, Vero cells, and MeWo cells were obtained from ATCC and were maintained at 37° C./5% CO2/90% relative humidity in Minimal Essential Medium with 10% fetal bovine serum, […] L-glutamine, 100 units/ml penicillin and 100 ug/ml streptomycin. Assay plates were prepared by dispensing compounds dissolved in DMSO into wells of 384 well collagen-coated plates using an ECHO acoustic dispenser. Each compound was tested in a 10-point, serial 3-fold dilution. Controls included uninfected cells and infected cells treated only with DMSO. Assays were initiated by mixing selected cells, in suspension, with virus, and dispensing 50 μl/well infected cells to pre-plated compounds. Plates were incubated at 37° C./5% CO2/90% relative humidity for ˜72 hrs to permit genomic replication, and infected cells were lysed by the addition of an equal volume of lysis buffer (10 mM Tris-HCl, pH8, 50 mM KCl, 2 mM MgCl2, 0.45% NP-40, 0.45% Tween-20, and 100 μg/ml proteinase K). An aliquot of the lysate was transferred to a 384-well PCR plate and incubated at 56° C. for 1 hour and then at 95° C. for 10 min. Levels of a viral gene and of the cellular control, PPIA (Thermo Fisher Assay ID=Hs04194521_s1), were measured in separate 10 μL qPCR assays using TaqMan® Gene Expression Master Mix (Applied Biosystems), and an 7900HT Fast Real-Time PCR System with 384-Well Block Module. 7-point, serial 10-fold dilutions of a plasmid standard were run on each plate to generate a standard curve, and genome copies numbers were calculated by plotting experimental Ct onto linear regression of the standard curve. Viral genome copy numbers were normalized by cellular control copy number, and compound effects were normalized to the window defined by the controls. Calculated % effects were fit using a 4-parameter algorithm, and EC50 was reported.
as §1, with “gene” for “gene and of the cellular control, PPIA (Thermo Fisher Assay ID=Hs04194521_s1),”, “in” for “in separate”, “Compound effects on viral” for “Viral”, “number” for “numbers were normalized by cellular control copy number, and compound effects”
(§2) VZV: Strain Street was maintained as an infected cell stock in MRC-5 cells. It was assayed in MeWo or MRCS cells and was used at 0.04-0.1 pfu/cell. The assays were performed in growth medium. Primer-probe set was Thermo Fisher Assay ID=AIPAEXQ. HSV-1: Strain F Street was assayed in Vero or MRCS cells and was used at 0.0005-0.004 pfu/cell in growth medium. Primer-probe set was Thermo Fisher Assay ID=AIBJZIB

HCMV Strain AD169 = test: Viral qPCR assay, HCMV in MRC-5 cells; format: cell-based, Human cytomegalovirus; conditions: read-out: CMV MRC5 Cell (EC50)
Method: as §1
as §1, with “gene” for “gene and of the cellular control, PPIA (Thermo Fisher Assay ID=Hs04194521_s1),”, “in” for “in separate”, “Compound effects on viral” for “Viral”, “number” for “numbers were normalized by cellular control copy number, and compound effects”
HCMV: Strain AD169 Street was assayed in MRC-5 cells and was used at 0.05-0.1 pfu/cell. The assays were performed in either growth media or in the same media with 50% fetal bovine serum. Primer-probe set was Thermo Fisher Assay ID=AIFATFK.

HSV2 = test: Viral qPCR assay, HSV2 in MRC5 cells; format: cell-based, Herpes Simplex Virus type 2; conditions: read-out: HSV2 MRC5 Cell (EC50)
Method: as §1
as §1, with “gene” for “gene and of the cellular control, PPIA (Thermo Fisher Assay ID=Hs04194521_s1),”, “in” for “in separate”, “Compound effects on viral” for “Viral”, “number” for “numbers were normalized by cellular control copy number, and compound effects”

VZV = test: Viral qPCR assay, VZV in MRC5 cells; format: cell-based, varicella zoster virus; conditions: read-out: VZV MRC5 Cell (IC50)
Method: as §1
as §1, with “gene” for “gene and of the cellular control, PPIA (Thermo Fisher Assay ID=Hs04194521_s1),”, “in” for “in separate”, “Compound effects on viral” for “Viral”, “number” for “numbers were normalized by cellular control copy number, and compound effects”
as §2

[2] = Human alphaherpesvirus 1, MRC5, 72 h
[3] = Human betaherpesvirus 5, AD169, MRC5, 72 h
[4] = Human alphaherpesvirus 2, MRC5, 72 h
[5] = Human alphaherpesvirus 3, MRC5, 72 h

T1 sequence (P08546 whole entry): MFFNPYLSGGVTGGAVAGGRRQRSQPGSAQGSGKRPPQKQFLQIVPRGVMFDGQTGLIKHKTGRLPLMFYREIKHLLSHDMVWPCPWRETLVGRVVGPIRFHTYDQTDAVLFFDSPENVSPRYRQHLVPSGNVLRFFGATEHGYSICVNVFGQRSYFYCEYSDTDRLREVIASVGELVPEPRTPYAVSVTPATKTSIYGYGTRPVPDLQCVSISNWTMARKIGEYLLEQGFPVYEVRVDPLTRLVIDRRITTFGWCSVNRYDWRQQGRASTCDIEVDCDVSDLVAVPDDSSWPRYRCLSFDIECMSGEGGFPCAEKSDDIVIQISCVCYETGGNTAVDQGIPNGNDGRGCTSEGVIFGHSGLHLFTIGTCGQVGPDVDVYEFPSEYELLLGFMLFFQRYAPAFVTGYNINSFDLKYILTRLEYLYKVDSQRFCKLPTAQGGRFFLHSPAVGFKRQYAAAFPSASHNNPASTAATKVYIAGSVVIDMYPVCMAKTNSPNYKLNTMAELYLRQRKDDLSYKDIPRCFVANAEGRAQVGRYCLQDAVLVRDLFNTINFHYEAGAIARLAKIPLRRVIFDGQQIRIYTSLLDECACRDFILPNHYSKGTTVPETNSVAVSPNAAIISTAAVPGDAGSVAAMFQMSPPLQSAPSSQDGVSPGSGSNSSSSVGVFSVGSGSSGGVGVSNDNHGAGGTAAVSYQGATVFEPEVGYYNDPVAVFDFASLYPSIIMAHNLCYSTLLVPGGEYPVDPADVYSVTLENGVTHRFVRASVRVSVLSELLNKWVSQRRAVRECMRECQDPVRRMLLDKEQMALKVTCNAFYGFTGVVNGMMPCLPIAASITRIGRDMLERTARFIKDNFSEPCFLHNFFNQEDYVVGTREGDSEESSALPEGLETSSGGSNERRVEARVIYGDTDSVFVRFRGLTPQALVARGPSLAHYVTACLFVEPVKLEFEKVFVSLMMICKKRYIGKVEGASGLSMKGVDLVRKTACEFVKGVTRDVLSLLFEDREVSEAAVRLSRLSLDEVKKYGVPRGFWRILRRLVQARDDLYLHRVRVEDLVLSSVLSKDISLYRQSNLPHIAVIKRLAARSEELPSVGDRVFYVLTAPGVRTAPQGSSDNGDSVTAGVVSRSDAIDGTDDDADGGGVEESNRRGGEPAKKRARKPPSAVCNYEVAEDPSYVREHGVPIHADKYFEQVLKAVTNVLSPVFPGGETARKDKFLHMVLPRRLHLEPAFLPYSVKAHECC

SMILES | IC50 [1] | EC50 (HSV-1 Strain F; ~72 hrs) | EC50 (HCMV Strain AD169; MRC5 cells, ~72 hrs) | EC50 (HSV2; ~72 hrs) | IC50 (VZV; ~72 hrs) | EC50 (HSV-1 Strain F; [2]) | EC50 (HCMV Strain AD169; [3]) | EC50 (HSV2; [4]) | IC50 (VZV; [5])
CC(C1CCC(=O)N1)N1Cc2c(C(=O)NCc3ccc(Cl)cc3)nn(C)c2C1 (single isomer, unassigned) [Compound 2] | 9.81 nM | 270 nM | 176 nM | 119 nM | 182 nM |  |  |  | 
O=C1CC[C@@H](CN2Cc3c(C(=O)NCc4ccc(Cl)cc4)nn(C(F)F)c3C2)N1 [Compound 45] | 37.8 nM |  |  |  |  | 1990 nM | 798 nM | 1040 nM | 1030 nM
O=C1CC[C@H](CN2Cc3c(C(=O)NCc4ccc(Cl)cc4)nn(-c4nccs4)c3C2)N1 [Compound 7] | 9.82 nM |  |  |  |  | 118 nM | 142 nM | 86.6 nM | 190 nM
Cn1nc(C(=O)NCc2ccc(Cl)cc2)c2c1C1(CCC1)N(C[C@H]1CCC(=O)N1)C2 [Compound 124] | 141 nM | 3360 nM | 581 nM | 2350 nM | 2160 nM |  |  |  | 
CCOc1cnc(-n2nc(C(=O)NCc3ccc(Cl)cc3)c3c2CN(C[C@H]2CCC(=O)N2)C3)nc1 [Compound 16] | 31.2 nM |  |  |  |  | 233 nM | 298 nM | 74.5 nM | 208 nM
CCC(C1CCC(=O)N1)N1Cc2c(C(=O)NCc3ccc(Cl)cc3)nn(C)c2C1 (centres unmarked) [Compound 90] | 31.7 nM | 1320 nM | 212 nM | 1180 nM | 1230 nM |  |  |  | 
Cc1cnc(-n2nc(C(=O)NCc3ccc(Cl)cc3)c3c2CN(C[C@H]2CCC(=O)N2)C3)s1 [Compound 11] | 22.7 nM |  |  |  |  | 172 nM | 263 nM | 50.6 nM | 170 nM
Cn1nc(C(=O)NCc2ccc(Cl)cc2)c2c1CN(C[C@@H]1CC(F)(F)C(=O)N1)C2 [Compound 82] | 60.3 nM |  |  |  |  | 2880 nM | 250 nM | 1020 nM | 1450 nM
CC(=O)OCC1c2c(c(C(=O)NCc3ccc(Cl)cc3)nn2C)CN1CC1CCC(=O)N1 (single isomer, unassigned) [Compound 120] | 121 nM | 2740 nM | 642 nM | 2020 nM | 1780 nM |  |  |  | 
CC([C@@H]1CCC(=O)N1)N1Cc2c(C(=O)NCc3ccc(Cl)cc3)nn(C(F)F)c2C1 (some centres unmarked) [Compound 71] | 76.2 nM | 2080 nM |  | 1080 nM | 1210 nM |  |  |  | 
CC(C1CC(F)(F)C(=O)N1)N1Cc2c(C(=O)NCc3ccc(Cl)cc3)nn(C)c2C1 (centres unmarked) [Compound 85] | 1050 nM |  | 3360 nM |  |  |  |  |  | 
C=CC[C@]1(CN2Cc3c(C(=O)NCc4ccc(Cl)cc4)nn(C)c3C2)CCC(=O)N1 [Compound 96] | 144 nM |  |  |  |  |  | 1120 nM |  | 
CC1c2c(c(C(=O)NCc3ccc(Cl)cc3)nn2C)CN1CC1CCC(=O)N1 (single isomer, unassigned) [Compound 102] | 5770 nM |  | 71200 nM |  |  |  |  |  | 
CC(C)[C@H]1c2c(c(C(=O)NCc3ccc(Cl)cc3)nn2C)CN1C(C)C1CCC(=O)N1 (single isomer, unassigned) [Compound 118] | 83.7 nM |  | 1600 nM |  |  |  |  |  | 
CC1c2c(c(C(=O)NCc3ccc(Cl)cc3)nn2C)CN1CC1CCC(=O)N1 (single isomer, unassigned) [Compound 108] | 702 nM |  | 1960 nM |  |  |  |  |  | 
CC(C1CC(F)C(=O)N1)N1Cc2c(C(=O)NCc3ccc(Cl)cc3)nn(C)c2C1 (centres unmarked) [Compound 75] | 70.9 nM |  | 2020 nM |  |  |  |  |  | 
O=C1CC[C@H](CN2Cc3c(C(=O)NCc4ccc(Cl)cc4)nn(-c4ncc(CO)s4)c3C2)N1 [Compound 9] | 19.2 nM |  |  |  |  |  | 644 nM |  | 
O=C1CC[C@H](CN2Cc3c(C(=O)NCc4ccc(Cl)cc4)nn([C@@H]4CCCOC4)c3C2)N1 [Compound 49] | 87.5 nM |  |  |  |  |  | 3540 nM |  | 
CC1c2c(c(C(=O)NCc3ccc(Cl)cc3)nn2C)CN1C(C)C1CCC(=O)N1 (centres unmarked) [Compound 110] | 2900 nM |  | 22200 nM |  |  |  |  |  | 
CC(C1CC(F)(F)C(=O)N1)N1Cc2c(C(=O)NCc3ccc(Cl)cc3)nn(C)c2C1 (single isomer, unassigned) [Compound 83] | 13300 nM |  |  |  |  |  | 99000 nM |  | 
Cn1nc(C(=O)NCc2ccc(Cl)cc2)c2c1C(CO)N(C[C@H]1CCC(=O)N1)C2 (single isomer, unassigned) [Compound 121] | 13300 nM |  |  |  |  |  | 99000 nM |  | 
